# Test results reported in patent publication US12325696B2, “Indazole derivative, preparation method therefor, and pharmaceutical application thereof” (JIANGSU HENGRUI MEDICINE CO., LTD., priority 2019, dated 2025).
# Key:
# Type in all cases: cell-based
# [1] = system: estrogen receptor reporter gene; assay: Inhibition of estrogen receptor reporter gene activity (ERE-luc luciferase) in MCF7/ERE-luc cells; details: Homo sapiens, 0.1 nM β-estradiol, 20 hours, read-out: IC50 of inhibitory activity on the activity of the estrogen receptor reporter gene
# Protocol: MCF7 cells MCF7/ERE-luc (ATCC, HTB-22) expressing the luciferase reporter gene ERE-luc (synthesized by GENEWIZ, Inc.) controlled by the estrogen receptor response element were cultured in MEM (GE Healthcare, SH30024.01) medium containing 10% fetal bovine serum and 500 µg/ml G418. On the first day of the experiment, MCF7/ERE-luc cells were seeded in a 96-well plate with incomplete MEM medium containing 10% fetal bovine serum treated with activated charcoal (BioSun, BS-0004-500) at a density of 30,000 cells/well (100 μl of cell suspension per well), and the plate was incubated in a cell incubator at 37° C. and 5% CO2 overnight. On the second day, 10 μl of β-estradiol (SIGMA, E2758-250MG) solution formulated with the above incomplete medium or test compound solution of different concentrations formulated with the above incomplete medium was added to each well, wherein the final concentration of β-estradiol was 0.1 nM, and the final concentrations of the compound were nine concentration points obtained by a 10-fold gradient dilution starting from 10 μM, a blank control containing 0.5% DMSO was set, and the plate was incubated in a cell incubator at 37° C. and 5% CO2 for 20 hours. On the third day, the 96-well plate was taken out, and 100 μl of ONE-Glo™ Luciferase Assay system (Promega, E6110) was added to each well to determine the activity of luciferase. The plate was left to stand at room temperature for 3 minutes until the cells were fully lysed, and the luminescence signal values were measured using a multi-label microplate reader (PerkinElmer, VICTOR 3). The IC50 values of the inhibitory activity of the compounds were calculated using Graphpad Prism software based on the concentrations and luminescence signal values of the compounds.
# The inhibitory effect of the compounds of the present disclosure on the activity of the estrogen receptor reporter gene was determined by the above test. A graph of the chemiluminescence signal values versus the logarithmic concentrations of the compound was made using Graghpad Prism.
# [2] = system: MCF7 cell; assay: Inhibition of proliferation of MCF7 cell (CellTiter-Glo, 144 hours); details: Homo sapiens; for IC50: MCF7, CellTiter-Glo, read-out: IC50 of the inhibitory effect on the proliferation of MCF7 cell; for Emax: MCF7 cell proliferation, read-out: Maximum inhibition
# Protocol: (§1) MCF7 cells (ATCC, HTB-22) were cultured in MEM (GE Healthcare, SH30024.01) complete medium containing 10% fetal bovine serum. On the first day of the experiment, MCF7 cells were seeded in a 96-well plate with the complete medium at a density of 3,000 cells/well (100 μl of cell suspension per well), and the plate was incubated in a cell incubator at 37° C. and 5% CO2 overnight. On the second day, the medium in each well was replaced with 135 μl of MEM incomplete medium containing 2% fetal bovine serum. 15 μl of test compound solution of different concentrations formulated with the incomplete medium was added to each well, wherein the final concentrations of the compound were nine concentration points obtained by a 4-fold gradient dilution starting from 100 nM. A blank control containing 0.5% DMSO was set. The plate was incubated in a cell incubator at 37° C. and 5% CO2 for 144 hours. On the eighth day, the 96-well plate was taken out, and 150 μl of CellTiter-Glo® Luminescent Cell Viability Assay (Promega, G7573) was added to each well. The plate was left to stand at room temperature for 10 minutes, and the luminescence signal values were measured using a multi-label microplate reader (PerkinElmer, VICTOR 3). The IC50 values of the inhibitory activity of the compounds were calculated based on the concentrations and luminescence signal values of the compounds using Graphpad Prism software.
# A graph of the chemiluminescence signal values versus the logarithmic concentrations of the compound was made using Graghpad Prism to obtain the IC50 values of the compound.
# [3] = system: MCF7 D538G; assay: Inhibition of proliferation of MCF7 cell expressing ERα D538G mutant; details: Homo sapiens, 144 hours; for Emax: read-out: Maximum inhibition
# Text: (§2) The mutants ERα Y537S and ERα D538G of human estrogen receptor α (ERαs) protein were obtained by site-directed mutagenesis using the cDNA of wild-type ESR1 gene (Accession No. NM000125) as a template according to double-primer PCR. The primer sequences used for mutagenesis are as follows (the nucleotides underlined are the sites of mutagenesis):
# (§3) The cDNA of mutant ESR1 was cloned into the target lentiviral vector pCDH-CMV-MCS-EF1-Puro (SBI, CD510B-1). The lentiviral plasmid with the mutant ESR1 gene sequence and the lentiviral packaging plasmids pVSV-G and pCMV-dR8.91 (SBI, LV500A-1) were transfected into HEK-293T cells (ATCC, CRL-3216) by Lipofectamine 3000 Transfection Reagent (ThermoFisher Scientific, Cat #L3000075). 48 hours after the transfection, the supernatant of the virus-containing DMEM high-glycemic medium (GE Healthcare, SH30243.01) containing 10% FBS was filtered, and ultracentrifuged to obtain the virus pellet. The virus pellet was resuspended in an appropriate amount of MEM medium (GE Healthcare, SH30024.01) containing 10% FBS, non-essential amino acids (SIGMA, M7145-100ML) and sodium pyruvate (SIGMA, S8636-100ML), and the resulting suspension was added to MCF7 cells (ATCC, HTB-22). Polybrene (SIGMA, H9268-5G) at a final concentration of 8 µg/ml was added, and the cells were incubated overnight. Two days after the transfection, […] puromycin (invitrogen, A11138-03) was added to the cell culture medium for resistance screening. After about two weeks, the MCF7 cell line capable of stably expressing ERαY537S and ERα D538G mutants was obtained.
# as §1, with “MCF7 cells expressing ERα mutant were cultured” for “MCF7 cells (ATCC, HTB-22) were cultured”, “the experiment, the cells were” for “the experiment, MCF7 cells were”, “control containing 0.500 DMSO was” for “control containing 0.5% DMSO was”, “C. and […] for” for “C. and 5% CO2 for”, “and 150 of CellTiter-Glo®” for “and 150 μl of CellTiter-Glo®”
# [4] = system: MCF7 ERαY537S; assay: Inhibition of proliferation of MCF7 cell expressing ERα Y537S mutant; details: Homo sapiens, 144 hours; for Emax: read-out: Maximum inhibition
# Text: as §2, §3
# as §1, with “MCF7 cells expressing ERα mutant were cultured” for “MCF7 cells (ATCC, HTB-22) were cultured”, “the experiment, the cells were” for “the experiment, MCF7 cells were”, “control containing 0.500 DMSO was” for “control containing 0.5% DMSO was”, “C. and […] for” for “C. and 5% CO2 for”, “and 150 of CellTiter-Glo®” for “and 150 μl of CellTiter-Glo®”
SMILES,IC50 [1] [nM],IC50 [2] [nM],Emax [2] [%],IC50 [3] [nM],Emax [3] [%],IC50 [4] [nM],Emax [4] [%]
"C=CC(=O)N1CCC(Oc2ccc(/C(=C(/CC(F)(F)F)c3ccccc3)c3ccc4[nH]nc(F)c4c3)cn2)CC1 [Example 28, (Z)-1-(4-((5-(4,4,4-Trifluoro-1-(3-fluoro-1H-indazol-5-yl)-2-phenylbut-1-en-1-yl)pyridin-2-yl)oxy)piperidin-1-yl)prop-2-en-1-one]",4,0.1,90,–,–,–,–
"C=CC(=O)N1CCC[C@@H](Oc2ccc(/C(=C(/CC(F)(F)F)c3ccccc3)c3ccc4[nH]nc(F)c4c3)cn2)C1 [Example 26, (R,Z)-1-(3-((5-(4,4,4-Trifluoro-1-(3-fluoro-1H-indazol-5-yl)-2-phenylbut-1-en-1-yl)pyridin-2-yl)oxy)piperidin-1-yl)prop-2-en-1-one]",3,0.3,103,1,111,2,104
"CNC(=O)/C=C/CN1CCC[C@@H](Oc2ccc(/C(=C(/CC(F)(F)F)c3ccccc3)c3ccc4[nH]nc(F)c4c3)cn2)C1 [Example 11, (E)-N-Methyl-4-((R)-3-((5-((Z)-4,4,4-trifluoro-1-(3-fluoro-1H-indazol-5-yl)-2-phenylbut-1-en-1-yl)pyridin-2-yl)oxy)piperidin-1-yl)but-2-enamide]",3,0.5,110,1,100,2,107
"CN(C)C(=O)/C=C/CN[C@H]1CCN(c2ccc(/C(=C(/CC(F)(F)F)c3ccccc3)c3ccc4[nH]nc(F)c4c3)cn2)C1 [Example 35, (E)-N,N-Dimethyl-4-(((S)-1-(5-((Z)-4,4,4-trifluoro-1-(3-fluoro-1H-indazol-5-yl)-2-phenylbut-1-en-1-yl)pyridin-2-yl)pyrrolidin-3-yl)amino)but-2-enamide]",4,1.1,105,3,104,6,97
"CNC(=O)c1ccc(/C(CC(F)(F)F)=C(\c2ccc(O[C@@H]3CCCN(C/C=C/C(=O)N(C)C)C3)nc2)c2ccc3[nH]nc(F)c3c2)cc1 [Example 21, 4-((Z)-1-(6-(((R)-1-((E)-4-(Dimethylamino)-4-oxobut-2-en-1-yl)piperidin-3-yl)oxy)pyridin-3-yl)-4,4,4-trifluoro-1-(3-fluoro-1H-indazol-5-yl)but-1-en-2-yl)-N-methylbenzamide]",–,45,90,–,–,–,–
"CN(C)C(=O)/C=C/CNC1CCN(c2ccc(/C(=C(/CC(F)(F)F)c3ccccc3)c3ccc4[nH]nc(F)c4c3)cn2)CC1 [Example 36, (E)-N,N-Dimethyl-4-((1-(5-((Z)-4,4,4-trifluoro-1-(3-fluoro-1H-indazol-5-yl)-2-phenylbut-1-en-1-yl)pyridin-2-yl)piperidin-4-yl)amino)but-2-enamide]",5,0.5,104,2,99,3,100
"CN(C)C(=O)/C=C/CN[C@@H]1CCN(c2ccc(/C(=C(/CC(F)(F)F)c3ccccc3)c3ccc4[nH]nc(F)c4c3)cn2)C1 [Example 34, (E)-N,N-Dimethyl-4-(((R)-1-(5-((Z)-4,4,4-trifluoro-1-(3-fluoro-1H-indazol-5-yl)-2-phenylbut-1-en-1-yl)pyridin-2-yl)pyrrolidin-3-yl)amino)but-2-enamide]",3,0.2,103,1,101,1,105
"CC#CC(=O)N1CCC[C@@H](Oc2ccc(/C(=C(/CC(F)(F)F)c3ccccc3)c3ccc4[nH]nc(F)c4c3)cn2)C1 [Example 25, (R,Z)-1-(3-((5-(4,4,4-Trifluoro-1-(3-fluoro-1H-indazol-5-yl)-2-phenylbut-1-en-1-yl)pyridin-2-yl)oxy)piperidin-1-yl)but-2-yn-1-one]",3,0.5,109,1,112,1,107
"CN(C)C(=O)/C=C/CN(C)[C@H]1CCCN(c2ccc(/C(=C(/CC(F)(F)F)c3ccccc3)c3ccc4[nH]nc(F)c4c3)cn2)C1 [Example 37, (E)-N,N-Dimethyl-4-(methyl((S)-1-(5-((Z)-4,4,4-trifluoro-1-(3-fluoro-1H-indazol-5-yl)-2-phenylbut-1-en-1-yl)pyridin-2-yl)piperidin-3-yl)amino)but-2-enamide]",8,0.8,98,2,101,3,86
"CN(C)C(=O)/C=C/CN1CC[C@H](Oc2ccc(/C(=C(/CC(F)(F)F)c3ccccc3)c3ccc4[nH]nc(F)c4c3)cn2)C1 [Example 30, (E)-N,N-Dimethyl-4-((S)-3-((5-((Z)-4,4,4-trifluoro-1-(3-fluoro-1H-indazol-5-yl)-2-phenylbut-1-en-1-yl)pyridin-2-yl)oxy)pyrrolidin-1-yl)but-2-enamide]",3,0.2,93,–,–,–,–
"CN(C)C(=O)/C=C/CN1CCC[C@H](Oc2ccc(/C(=C(/CC(F)(F)F)c3ccccc3)c3ccc4[nH]nc(F)c4c3)cn2)C1 [Example 27, (E)-N,N-Dimethyl-4-((S)-3-((5-((Z)-4,4,4-trifluoro-1-(3-fluoro-1H-indazol-5-yl)-2-phenylbut-1-en-1-yl)pyridin-2-yl)oxy)piperidin-1-yl)but-2-enamide]",7,0.3,86,–,–,–,–
